In patent EP0198522A1, “Heterocyclic herbicides” (SHELL INTERNATIONALE RESEARCH MAATSCHAPPIJ B.V., priority 1985, dated 1986):

How the values were obtained:
Type in all cases: in vivo
[1] = tested on: linseed, Linum usitatissisum; test: Herbicidal activity, post-emergence soil drench test; details: 10 kg/ha soil drench; assessed visually thirteen days after drenching; 0-9 scale, 0 = growth as untreated control, 9 = death
Description: (§1) To evaluate their herbicidal activity, compounds according to the invention were tested using as representative range of plants: maize, Zea mays (Mz); rice, Oryza sativa (R); barnyard grass, Echinochloa crusgalli (BG); oat, Avena sativa (0); linseed, Linum usitatissisum (L); mustard, Sinapsis alba (M); sugar beet, Beta vulgaris (SB) and soya bean, Glycine max (S).
(§2) The tests fall into two categories, pre-emergence and post-emergence. […] The post-emergence tests involved two types of test, viz., soil drench and foliar spray tests. In the soil drench tests the soil in which the seedling plants of the above species were growing was drenched with a liquid formulation containing a compound of the invention, and in the foliar spray tests the seedling plants were sprayed with such a formulation.
(§3) The soil used in the tests was a prepared horticultural loam.
(§4) These acetone solutions were diluted with water and the resulting formulations applied at dosage levels corresponding to 5 kg or 1 kg of active material per hectare in a volume equivalent to 600 litres per hectare in the soil spray and foliar spray test, and at a dosage of level equivalent to 10 kilograms of active material per hectare in a volume equivalent to approximately 3,000 litres per hectare in the soil drench tests.
(§5) In the pre-emexgence tests untreated sown soil and in the post-emergence tests untreated soil bearing seedling plants were used as controls.
(§6) The herbicidal effects of the test compounds were assessed visually twelve days after spraying the foliage and the soil, and thirteen days after drenching the soil and were recorded on a 0-9 scale. A rating 0 indicates growth as untreated control, a rating 9 indicates death. An increase of 1 unit on the linear scale approximates to a 10% increase in the level of effect.

soya bean, Glycine max [2] = test: as above; details: 10 kg/ha soil drench; assessed visually thirteen days after drenching; 0-9 scale, 0 = growth as untreated control, 9 = death
Description: as §1, §2, §3, §4, §5, §6

maize, Zea mays [3] = test: as above; details: 10 kg/ha soil drench; assessed visually thirteen days after drenching; 0-9 scale, 0 = growth as untreated control, 9 = death
Description: as §1, §2, §3, §4, §5, §6

rice, Oryza sativa [4] = test: as above; details: 10 kg/ha soil drench; assessed visually thirteen days after drenching; 0-9 scale, 0 = growth as untreated control, 9 = death
Description: as §1, §2, §3, §4, §5, §6

mustard, Sinapsis alba [5] = test: as above; details: 10 kg/ha soil drench; assessed visually thirteen days after drenching; 0-9 scale, 0 = growth as untreated control, 9 = death
Description: as §1, §2, §3, §4, §5, §6

oat, Avena sativa [6] = test: as above; details: 10 kg/ha soil drench; assessed visually thirteen days after drenching; 0-9 scale, 0 = growth as untreated control, 9 = death
Description: as §1, §2, §3, §4, §5, §6

[7] = tested on: barnyard grass, Echinochloa crusgalli; test: as above; details: 10 kg/ha soil drench; assessed visually thirteen days after drenching; 0-9 scale, 0 = growth as untreated control, 9 = death
Description: as §1, §2, §3, §4, §5, §6

[8] = tested on: sugar beet, Beta vulgaris; test: as above; details: 10 kg/ha soil drench; assessed visually thirteen days after drenching; 0-9 scale, 0 = growth as untreated control, 9 = death
Description: as §1, §2, §3, §4, §5, §6

[9] = tested on: linseed, Linum usitatissisum; test: Herbicidal activity, post-emergence foliar spray test; details: assessed visually twelve days after spraying, 0-9 scale, 0 = growth as untreated control, 9 = death
Description: as §1, §2, §3, §4, §5, §6

soya bean, Glycine max [10] = test: as above; details: assessed visually twelve days after spraying, 0-9 scale, 0 = growth as untreated control, 9 = death
Description: as §1, §2, §3, §4, §5, §6

maize, Zea mays [11] = test: as above; details: assessed visually twelve days after spraying, 0-9 scale, 0 = growth as untreated control, 9 = death
Description: as §1, §2, §3, §4, §5, §6

rice, Oryza sativa [12] = test: as above; details: assessed visually twelve days after spraying, 0-9 scale, 0 = growth as untreated control, 9 = death
Description: as §1, §2, §3, §4, §5, §6

mustard, Sinapsis alba [13] = test: as above; details: assessed visually twelve days after spraying, 0-9 scale, 0 = growth as untreated control, 9 = death
Description: as §1, §2, §3, §4, §5, §6

oat, Avena sativa [14] = test: as above; details: assessed visually twelve days after spraying, 0-9 scale, 0 = growth as untreated control, 9 = death
Description: as §1, §2, §3, §4, §5, §6

[15] = tested on: barnyard grass, Echinochloa crusgalli; test: as above; details: assessed visually twelve days after spraying, 0-9 scale, 0 = growth as untreated control, 9 = death
Description: as §1, §2, §3, §4, §5, §6

[16] = tested on: sugar beet, Beta vulgaris; test: as above; details: assessed visually twelve days after spraying, 0-9 scale, 0 = growth as untreated control, 9 = death
Description: as §1, §2, §3, §4, §5, §6

[17] = tested on: linseed, Linum usitatissisum; test: Herbicidal activity, pre-emergence test (soil spray); details: assessed visually twelve days after spraying, 0-9 scale, 0 = growth as untreated control, 9 = death
Description: as §1, §2, §3, §4, §5, §6

soya bean, Glycine max [18] = test: as above; details: assessed visually twelve days after spraying, 0-9 scale, 0 = growth as untreated control, 9 = death
Description: as §1, §2, §3, §4, §5, §6

maize, Zea mays [19] = test: as above; details: assessed visually twelve days after spraying, 0-9 scale, 0 = growth as untreated control, 9 = death
Description: as §1, §2, §3, §4, §5, §6

rice, Oryza sativa [20] = test: as above; details: assessed visually twelve days after spraying, 0-9 scale, 0 = growth as untreated control, 9 = death
Description: as §1, §2, §3, §4, §5, §6

mustard, Sinapsis alba [21] = test: as above; details: assessed visually twelve days after spraying, 0-9 scale, 0 = growth as untreated control, 9 = death
Description: as §1, §2, §3, §4, §5, §6

oat, Avena sativa [22] = test: as above; details: assessed visually twelve days after spraying, 0-9 scale, 0 = growth as untreated control, 9 = death
Description: as §1, §2, §3, §4, §5, §6

[23] = tested on: barnyard grass, Echinochloa crusgalli; test: as above; details: assessed visually twelve days after spraying, 0-9 scale, 0 = growth as untreated control, 9 = death
Description: as §1, §2, §3, §4, §5, §6

[24] = tested on: sugar beet, Beta vulgaris; test: as above; details: assessed visually twelve days after spraying, 0-9 scale, 0 = growth as untreated control, 9 = death
Description: as §1, §2, §3, §4, §5, §6

Compound	Soil drench 10/kg/ha L (herbicidal effect rating) [1]	Soil drench 10/kg/ha S (herbicidal effect rating) (soya bean, Glycine max [2])	Soil drench 10/kg/ha Mz (herbicidal effect rating) (maize, Zea mays [3])	Soil drench 10/kg/ha R (herbicidal effect rating) (rice, Oryza sativa [4])	Soil drench 10/kg/ha M (herbicidal effect rating) (mustard, Sinapsis alba [5])	Soil drench 10/kg/ha O (herbicidal effect rating) (oat, Avena sativa [6])	Soil drench 10/kg/ha BG (herbicidal effect rating) [7]	Soil drench 10/kg/ha SB (herbicidal effect rating) [8]	Foliar spray L (herbicidal effect rating) ([9]; Dosage 1 kg/ha)	Foliar spray L (herbicidal effect rating) ([9]; Dosage 5 kg/ha)	Foliar spray S (herbicidal effect rating) (soya bean, Glycine max [10]; Dosage 1 kg/ha)	Foliar spray S (herbicidal effect rating) (soya bean, Glycine max [10]; Dosage 5 kg/ha)	Foliar spray Mz (herbicidal effect rating) (maize, Zea mays [11]; Dosage 1 kg/ha)	Foliar spray Mz (herbicidal effect rating) (maize, Zea mays [11]; Dosage 5 kg/ha)	Foliar spray R (herbicidal effect rating) (rice, Oryza sativa [12]; Dosage 1 kg/ha)	Foliar spray R (herbicidal effect rating) (rice, Oryza sativa [12]; Dosage 5 kg/ha)	Foliar spray M (herbicidal effect rating) (mustard, Sinapsis alba [13]; Dosage 1 kg/ha)	Foliar spray M (herbicidal effect rating) (mustard, Sinapsis alba [13]; Dosage 5 kg/ha)	Foliar spray O (herbicidal effect rating) (oat, Avena sativa [14]; Dosage 1 kg/ha)	Foliar spray O (herbicidal effect rating) (oat, Avena sativa [14]; Dosage 5 kg/ha)	also measured
COC(=O)c1cc2cc3c(cc2nc1C1=NC(=O)C(C)(C(C)C)N1)OCO3 (stereo not drawn) [Example 1, Methyl-2-(5-i.saprapyl-5-methyl-4-oxo-2-imidazolin-2-yl)-[1,3]-dioxolo[4,5-g] quinoline-3-carboxylate]	6	4	6	7	8	6	7	7	6	7	0	2	5	7	4	6	5	7	5	6	Foliar spray BG (herbicidal effect rating) ([15]; Dosage 1 kg/ha): 4; Foliar spray BG (herbicidal effect rating) ([15]; Dosage 5 kg/ha): 7; Foliar spray SB (herbicidal effect rating) ([16]; Dosage 1 kg/ha): 6; Foliar spray SB (herbicidal effect rating) ([16]; Dosage 5 kg/ha): 8; Pre-emergence L (herbicidal effect rating) ([17]; Dosage 1 kg/ha): 6; Pre-emergence L (herbicidal effect rating) ([17]; Dosage 5 kg/ha): 7; Pre-emergence S (herbicidal effect rating) (soya bean, Glycine max [18]; Dosage 1 kg/ha): 0; Pre-emergence S (herbicidal effect rating) (soya bean, Glycine max [18]; Dosage 5 kg/ha): 0; Pre-emergence Mz (herbicidal effect rating) (maize, Zea mays [19]; Dosage 1 kg/ha): 5; Pre-emergence Mz (herbicidal effect rating) (maize, Zea mays [19]; Dosage 5 kg/ha): 7; Pre-emergence R (herbicidal effect rating) (rice, Oryza sativa [20]; Dosage 1 kg/ha): 4; Pre-emergence R (herbicidal effect rating) (rice, Oryza sativa [20]; Dosage 5 kg/ha): 8; Pre-emergence M (herbicidal effect rating) (mustard, Sinapsis alba [21]; Dosage 1 kg/ha): 4; Pre-emergence M (herbicidal effect rating) (mustard, Sinapsis alba [21]; Dosage 5 kg/ha): 7; Pre-emergence O (herbicidal effect rating) (oat, Avena sativa [22]; Dosage 1 kg/ha): 5; Pre-emergence O (herbicidal effect rating) (oat, Avena sativa [22]; Dosage 5 kg/ha): 7; Pre-emergence BG (herbicidal effect rating) ([23]; Dosage 1 kg/ha): 5; Pre-emergence BG (herbicidal effect rating) ([23]; Dosage 5 kg/ha): 8; Pre-emergence SB (herbicidal effect rating) ([24]; Dosage 1 kg/ha): 6; Pre-emergence SB (herbicidal effect rating) ([24]; Dosage 5 kg/ha): 6
CC(C)C1(C)NC(c2nc3cc4c(cc3cc2C(=O)O)OCO4)=NC1=O (stereo not drawn) [Example 2, 2-(5-methyl-5-isopropyl-4-oxo-2-imidazolin-2-yl)-[1,3]-dioxolo[4,5-g] quinoline-3-carboxylic acid]	7	6	7	7	9	7	9	8	6	6	2	4	6	7	6	6	7	7	6	7	Foliar spray BG (herbicidal effect rating) ([15]; Dosage 1 kg/ha): 7; Foliar spray BG (herbicidal effect rating) ([15]; Dosage 5 kg/ha): 7; Foliar spray SB (herbicidal effect rating) ([16]; Dosage 1 kg/ha): 7; Foliar spray SB (herbicidal effect rating) ([16]; Dosage 5 kg/ha): 7; Pre-emergence L (herbicidal effect rating) ([17]; Dosage 1 kg/ha): 8; Pre-emergence L (herbicidal effect rating) ([17]; Dosage 5 kg/ha): 9; Pre-emergence S (herbicidal effect rating) (soya bean, Glycine max [18]; Dosage 1 kg/ha): 8; Pre-emergence S (herbicidal effect rating) (soya bean, Glycine max [18]; Dosage 5 kg/ha): 8; Pre-emergence Mz (herbicidal effect rating) (maize, Zea mays [19]; Dosage 1 kg/ha): 8; Pre-emergence Mz (herbicidal effect rating) (maize, Zea mays [19]; Dosage 5 kg/ha): 8; Pre-emergence R (herbicidal effect rating) (rice, Oryza sativa [20]; Dosage 1 kg/ha): 9; Pre-emergence R (herbicidal effect rating) (rice, Oryza sativa [20]; Dosage 5 kg/ha): 9; Pre-emergence M (herbicidal effect rating) (mustard, Sinapsis alba [21]; Dosage 1 kg/ha): 7; Pre-emergence M (herbicidal effect rating) (mustard, Sinapsis alba [21]; Dosage 5 kg/ha): 7; Pre-emergence O (herbicidal effect rating) (oat, Avena sativa [22]; Dosage 1 kg/ha): 7; Pre-emergence O (herbicidal effect rating) (oat, Avena sativa [22]; Dosage 5 kg/ha): 7; Pre-emergence BG (herbicidal effect rating) ([23]; Dosage 1 kg/ha): 8; Pre-emergence BG (herbicidal effect rating) ([23]; Dosage 5 kg/ha): 8; Pre-emergence SB (herbicidal effect rating) ([24]; Dosage 1 kg/ha): 8; Pre-emergence SB (herbicidal effect rating) ([24]; Dosage 5 kg/ha): 8
COC(=O)c1cc2cc3c(cc2nc1C1=NC(C)(C(C)C)C(=O)N1C(C)=O)OCO3 (stereo not drawn) [Example 3, Methyl-2-(1-acetyl-4-isopropyl-4-methyl-5-oxo-2-imidazolin-2-yl)-[1,3]-dioxolo[4,5-g] quinoline-3-carboxylate]	6	0	5	5	7	6	7	8	5	6	1	3	4	6	2	5	3	6	3	5	Foliar spray BG (herbicidal effect rating) ([15]; Dosage 1 kg/ha): 5; Foliar spray BG (herbicidal effect rating) ([15]; Dosage 5 kg/ha): 7; Foliar spray SB (herbicidal effect rating) ([16]; Dosage 1 kg/ha): 5; Foliar spray SB (herbicidal effect rating) ([16]; Dosage 5 kg/ha): 7; Pre-emergence L (herbicidal effect rating) ([17]; Dosage 1 kg/ha): 5; Pre-emergence L (herbicidal effect rating) ([17]; Dosage 5 kg/ha): 8; Pre-emergence S (herbicidal effect rating) (soya bean, Glycine max [18]; Dosage 1 kg/ha): 0; Pre-emergence S (herbicidal effect rating) (soya bean, Glycine max [18]; Dosage 5 kg/ha): 0; Pre-emergence Mz (herbicidal effect rating) (maize, Zea mays [19]; Dosage 1 kg/ha): 4; Pre-emergence Mz (herbicidal effect rating) (maize, Zea mays [19]; Dosage 5 kg/ha): 8; Pre-emergence R (herbicidal effect rating) (rice, Oryza sativa [20]; Dosage 1 kg/ha): 2; Pre-emergence R (herbicidal effect rating) (rice, Oryza sativa [20]; Dosage 5 kg/ha): 5; Pre-emergence M (herbicidal effect rating) (mustard, Sinapsis alba [21]; Dosage 1 kg/ha): 2; Pre-emergence M (herbicidal effect rating) (mustard, Sinapsis alba [21]; Dosage 5 kg/ha): 4; Pre-emergence O (herbicidal effect rating) (oat, Avena sativa [22]; Dosage 1 kg/ha): 4; Pre-emergence O (herbicidal effect rating) (oat, Avena sativa [22]; Dosage 5 kg/ha): 6; Pre-emergence BG (herbicidal effect rating) ([23]; Dosage 1 kg/ha): 4; Pre-emergence BG (herbicidal effect rating) ([23]; Dosage 5 kg/ha): 7; Pre-emergence SB (herbicidal effect rating) ([24]; Dosage 1 kg/ha): 4; Pre-emergence SB (herbicidal effect rating) ([24]; Dosage 5 kg/ha): 8
